# Experimental data: patent publication US9925154B2 (Seattle Children's Hospital, priority 2011, dated 2018)
# Structures can show the parent of a compound that is named as a salt. Where two headings read alike, the source gives them in different places.
# Tests used:
# [1] = tested on: unilateral ureteral obstruction (UUO) kidneys; assay: IP cysteamine HCL dose trial in UUO mice; format: in vivo
# Procedure: Unilateral ureteral obstruction (UUO) was performed on ten mice.
# [2] = Plasma cysteamine levels by mass spectrometry; format: in vivo, mice; conditions: for plasma levels of cysteamine at the time of sacrifice: day 14 after UUO
# Procedure: Plasma cysteamine levels were measured by mass spectrometry by the reference laboratory at UC San Diego that also runs most of the human samples for the North American patients with cystinosis.
# Plasma levels were taken every hour during the evening (for 12 hours) and every four hours during the day (n=4/group).
# [3] = tested on: unilateral ureteral obstruction (UUO) kidneys; conditions: for severity of fibrosis as measured by total collagen content: day 14 after UUO
# Procedure: Mice were sacrificed at day 14 after UUO and total renal collagen levels (μg hydroxyproline/mg) were measured. Total collagen in the tissue was calculated on the assumption that collagen contains 12.7% hydroxyproline by weight.
# UUO kidneys = assay: Total kidney collagen (hydroxyproline) in UUO kidneys; format: in vivo, mice; conditions: for reduction of total kidney collagen content: day 14 after UUO
# Procedure: (§1) Cysteamine bitartrate, the bitartrate salt of cysteamine is known commercially as Cystagon®. […] Both doses were well-tolerated and measured serum levels of cysteamine were appropriate.
# Unilateral ureteral obstruction (UUO) was performed on 8 week-old wild-type male mice on a C57BL6 background. […] Groups of mice (n=8-10 mice per group at each time-point) were studied 3, 7, 14, and 21 days after the onset of chronic injury induced by UUO.
# Total collagen was measured as hydroxyproline concentration in hydrolysates extracted from frozen normal (unobstructed) and UUO kidney samples. […] Collagen reduction was confirmed by sirius red staining
# E-cadherin = E-cadherin immunoblotting in UUO mice; format: in vivo; conditions: treated UUO mice
# Description: as §1
# fibronectin = assay: ECM gene mRNA by real-time qPCR in UUO kidneys: fibronectin; format: in vivo, mice; conditions: day 7 after UUO
# Procedure: (§2) Unilateral ureteral obstruction (UUO) was performed on 8 week-old wild-type male mice on a C57BL6 background. […] The kidneys were harvested at 3, 7, and 14 days after UUO.
# (§3) Extracellular matrix (ECM) gene mRNA levels were measured by semiquantitative real-time PCR (qPCR) in both doses at 3, 7 and 14 days after UUO. Real-time qPCR) was performed with specific primers for collagen 1A1, collagen 3A1, fibronectin, and other profibrotic and proinflammatory genes using standard protocols. Semi-quantitative real-time qPCR data was analyzed with REST software using both GAPDH and 18S as reference genes. Reactions were run in triplicate, and mean threshold crossing cycle (Ct) values were compared. ‡P<0.05; †P<0.01.
# procollagen I = assay: ECM gene mRNA by real-time qPCR in UUO kidneys: procollagen I; format: in vivo, mice; conditions: 600 mg/kg
# Procedure: as §2, §3
# procollagen III = assay: ECM gene mRNA by real-time qPCR in UUO kidneys: procollagen III; format: in vivo, mice; conditions: day 7 after UUO
# Procedure: as §2, §3
# [4] = tested on: α-SMA-positive myofibroblasts; assay: α-SMA immunoperoxidase staining of UUO kidneys; format: in vivo, mice
# Procedure: Myofibroblast activation and accumulation was examined after UUO by measuring the expression of α-smooth muscle actin (α-SMA), a marker of myofibroblast activation. Interstitial myofibroblasts are the primary matrix-producing cell in response to kidney injury. […] Cell proliferation was measured by counting BrdU positive cells using a monoclonal anti-BrdU antibody. Myofibroblast recruitment was quantified after immunoperoxidase staining using peroxidase-conjugated murine anti-human α-smooth muscle actin (α-SMA) 1A4 monoclonal antibody (Sigma).
# [5] = tested on: F4/80-positive interstitial macrophages; assay: F4/80 confocal staining of UUO kidneys; format: in vivo, mice
# Procedure: UUO was performed on 8 week-old wild-type male mice on a C57BL6 background. […] The kidneys (obstructed and contralateral) were harvested at day land day 14 after UUO. Macrophage accumulation was analyzed by confocal staining using F4/80 rat anti-mouse macrophage monoclonal antibody (Serotec Ltd., Oxford, UK).
# TGF-β = assay: Real-time PCR of profibrotic cytokines in UUO kidneys: TGF-β; format: in vivo; conditions: vs control mice; for down-regulation of TGF-β mRNA levels: day 14 after UUO
# Procedure: (§4) The expression patterns of pro-inflammatory and pro-fibrotic cytokines were investigated at day 7 and day 14 in total kidney homogenate by semi-quantitative real time qPCR.
# (§5) UUO was performed on 8 week-old wild-type male mice on a C57BL6 background. […] The kidneys (obstructed and contralateral) were harvested at day land day 14 after UUO.
# (§6) Semi-quantitative real-time PCR was performed with specific primers to TGF-β and TGF-β receptor 1 genes using iCycler (Bio-Rad) with standard protocol. […] Semi-quantitative real-time PCR data was analyzed with REST software using both GAPDH and 18S as reference genes. Each sample was performed in triplicate. (‡P<0.05, †P<0.01).
# TGF-β receptor 1 = assay: Real-time PCR of profibrotic cytokines in UUO kidneys: TGF-β receptor; format: in vivo; conditions: vs control mice; for down-regulation of TGF-β receptor mRNA levels: day 14 after UUO
# Procedure: as §4, §5, §6
# [6] = tested on: IL-1β, TNF-α, IL-6, Gal-3, and Endo180; assay: Real-time qPCR of pro-inflammatory and pro-fibrotic cytokines in UUO kidneys; format: in vivo; conditions: day 14 after UUO, vs control mice
# Procedure: as §4, §5
# [7] = tested on: total kidney thiol content; assay: Total kidney thiol content in UUO mice; format: in vivo
# Procedure: In order to investigate the importance of total redox status during fibrotic injury, total kidney thiol content was measured as an indicator of antioxidant status.
# UUO was performed on 8 week-old wild-type male mice on a C57BL6 background (n=5/group). […] The kidneys (obstructed and contralateral) were harvested at days 7, 14 and 21 after UUO. Tissue from contralateral and UUO kidneys was processed in antioxidant buffer and analyzed for total thiol content fluorometrically and normalized to protein content using a Measure-iT™ Thiol Assay Kit (Invitrogen).
# Nox2, Nox4, and SOD1 = assay: Real-time qPCR of oxidant and anti-oxidant genes in UUO mice; format: in vivo; conditions: day 7 and day 14, qPCR (data not shown)
# Description: In addition, there was no difference between cysteamine-treated and control mice in the modulation of the expression of the oxidant and anti-oxidant genes Nox2, Nox4, and SOD1 as determined by semi-quantitative real time qPCR at day 7 and day 14 (data not shown).
# [8] = tested on: Transglutaminase 2 (TGase2); assay: TGase2 protein expression in UUO kidneys; format: in vivo, mice; conditions: 400 mg/kg or 600 mg/kg
# Description: Transglutaminases (TGases) are a family of enzymes that catalyze the transamidation reaction between the γ-carboxyamide of a peptide-bound glutamine residue and the ϵ-amino group of a peptide-bound lysine residue or the primary amine group of a polyamine via forming a thioester acylenzyme intermediate at the active site cysteine. Thus, TGase activity produces cross-linked proteins or amine conjugates. One type of TGase, TGase2, acts to cross link ECM proteins, particularly Collagen III. Cross linking renders proteins resistant to degradation, which is thought to result in accelerated matrix deposition.
# [9] = tested on: intracellular cystine (circulating white blood cells); conditions: cited from earlier work
# [10] = delivery to the small intestine; cited from earlier work
# TGase = target: T1, TGase (Homo sapiens, UniProt P21980); conditions: in vitro, Jeon et al. 2004; cited from earlier work
# T1 sequence (P21980 1-687): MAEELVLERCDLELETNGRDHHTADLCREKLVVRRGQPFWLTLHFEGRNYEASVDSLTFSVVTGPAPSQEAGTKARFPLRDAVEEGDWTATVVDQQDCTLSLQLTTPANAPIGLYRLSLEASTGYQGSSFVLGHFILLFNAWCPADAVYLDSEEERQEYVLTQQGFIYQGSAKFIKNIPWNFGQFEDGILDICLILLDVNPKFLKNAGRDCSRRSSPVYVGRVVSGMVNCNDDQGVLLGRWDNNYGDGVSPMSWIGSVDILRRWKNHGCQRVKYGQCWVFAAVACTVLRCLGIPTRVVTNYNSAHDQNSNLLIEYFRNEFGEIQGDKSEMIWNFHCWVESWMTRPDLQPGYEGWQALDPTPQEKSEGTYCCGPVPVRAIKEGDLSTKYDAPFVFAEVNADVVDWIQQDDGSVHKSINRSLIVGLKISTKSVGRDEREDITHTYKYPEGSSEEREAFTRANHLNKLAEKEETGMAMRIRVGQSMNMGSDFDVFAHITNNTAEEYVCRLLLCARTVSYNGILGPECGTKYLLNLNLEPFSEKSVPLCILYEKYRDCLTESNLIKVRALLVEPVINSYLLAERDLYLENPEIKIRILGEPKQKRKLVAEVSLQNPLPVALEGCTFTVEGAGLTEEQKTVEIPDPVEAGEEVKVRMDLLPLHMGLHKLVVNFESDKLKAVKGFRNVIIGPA
# [11] = high doses (600 mg/kg), day 7 after UUO
compound,measurement,setting,value
NCCS [cysteamine HCL],total renal collagen levels (hydroxyproline),"[1]; 400 mg/kg dose group, daily IP, day 14 after UUO, compared to placebo (PBS)",decreased total collagen levels
same,deaths,"[1]; IP, high dose levels",several mice died
same,adverse signs observed,"[1]; mouse, in vivo, ip",Possible seizures and somnolence
NCCS [cysteamine bitartrate],Cmax,"[2]; read-out: Cmax levels of cysteamine, C57BL/6 mice, 600 mg/kg in drinking water for 3 days",15 to 20 µM
NCCS.O=C(O)C(O)C(O)C(=O)O (centres unmarked) [cysteamine bitartrate],severity of fibrosis as measured by total collagen content,[3]; 400 mg/kg in drinking water,attenuated
same,severity of fibrosis as measured by total collagen content,[3]; 600 mg/kg in drinking water,attenuated
same,deaths or abnormal behavior,"[3]; 200, 400, 600 mg/kg in drinking water, 14 days, even at high doses",No deaths or abnormal behavior was observed
same,tolerability,"UUO kidneys; 400 mg/kg/day and 600 mg/kg/day, UUO mice",well-tolerated
same,reduction of total kidney collagen content,"UUO kidneys; 400 mg/kg/day in drinking water, vs untreated",21%
same,reduction of total kidney collagen content,"UUO kidneys; 600 mg/kg/day in drinking water, vs untreated",21%
same,decrease in collagen levels,"UUO kidneys; 600 mg/kg/day in drinking water, day 21 after UUO, vs untreated",25%
same,collagen reduction by sirius red staining,UUO kidneys; UUO kidneys,confirmed
same,kidney collagen levels,"UUO kidneys; both doses, 400 and 600 mg/kg/day, by day 14, P<0.01",statistically significant reductions
same,"total collagen, treated vs control",UUO kidneys; day 7 after UUO,no difference
same,increase of E-cadherin levels (marker of tubular damage),E-cadherin,1.3 fold
same,reduction in kidney fibronectin mRNA levels,fibronectin; 400 mg/kg,~40%
same,reduction in fibronectin mRNA levels,fibronectin; 600 mg/kg,~60%
same,reduction in procollagen I mRNA levels,procollagen I; day 7 after UUO,~60%
same,procollagen I mRNA levels lower,procollagen I; day 14 after UUO,56%
same,reduction in procollagen III mRNA levels,procollagen III; 400 mg/kg,~40%
same,reduction in procollagen III mRNA levels,procollagen III; 600 mg/kg,~60%
same,reduction in α-SMA-positive myofibroblasts,"[4]; 400 mg/kg, day 14 after UUO",~30%
same,reduction in α-SMA-positive myofibroblasts,"[4]; 600 mg/kg, day 14 after UUO",~30%
same,reduction in interstitial macrophage infiltration,"[5]; 600 mg/kg/day, day 14 after UUO",34%
same,"interstitial macrophage infiltration, treated vs control",[5]; day 7 after UUO,No difference
same,down-regulation of TGF-β mRNA levels,TGF-β; 400 mg/kg,47%
same,down-regulation of TGF-β mRNA levels,TGF-β; 600 mg/kg,64%
same,up-regulation of TGF-β expression,TGF-β; [11],approximately 60%
same,down-regulation of TGF-β receptor mRNA levels,TGF-β receptor 1; 400 mg/kg,47%
same,down-regulation of TGF-β receptor mRNA levels,TGF-β receptor 1; 600 mg/kg,64%
same,up-regulation of TGF-β receptor expression,TGF-β receptor 1; [11],approximately 60%
same,"expression levels of IL-1β, TNF-α, IL-6, Gal-3, and Endo180",[6],No difference
same,plasma levels of cysteamine at the time of sacrifice,[2]; 400 mg/kg in drinking water,0.81±0.091 Ilmole/L
same,plasma levels of cysteamine at the time of sacrifice,[2]; 600 mg/kg in drinking water,1.04±0.151 Ilmole/L
same,"serum levels of cysteamine, night vs day","[2]; C57BL/6 mice, 600 mg/kg in drinking water for 3 days",higher serum levels of cysteamine are achieved at night and lower levels during the day
"NCCS [cysteamine, β-mercaptoethylamine]",reduction in α-SMA-positive myofibroblasts,"[4]; 400 mg/kg, day 7 after UUO",38%
same,reduction in α-SMA-positive myofibroblasts,"[4]; 400 mg/kg, day 14 after UUO",24%
same,reduction in α-SMA-positive myofibroblasts,"[4]; 600 mg/kg, day 7 after UUO",47%
same,reduction in α-SMA-positive myofibroblasts,"[4]; 600 mg/kg, day 14 after UUO",33%
same,total kidney thiol content in UUO kidney,"[7]; 400 mg/kg or 600 mg/kg, day 7 after UUO",remained at levels close to that of the contralateral kidney
same,increase of total kidney thiol content,"[7]; high dose (600 mg/kg), compared to controls",36%
same,"expression of oxidant and anti-oxidant genes Nox2, Nox4, and SOD1, treated vs control","Nox2, Nox4, and SOD1",no difference
same,TGase2 protein expression in UUO kidneys,[8],no difference in TGase2 protein expression
same,lowering of leukocyte cystine levels,"[9]; children with cystinosis, enteral administration (Dohil et al.)",prolonged efficacy in the lowering of leukocyte cystine levels
same,progression to kidney failure/transplantation,"[9]; subjects with cystinosis, taken regularly",reduce the rate of progression to kidney failure/transplantation
same,depletion of intracellular cystine,"[9]; taken regularly, measured in circulating white blood cells",up to 90%
same,Cmax,[10],increases Cmax
same,area under the curve (AUC),[10],increases area under the curve (AUC)
same,time to decrease in leukocyte cystine,[10],within an hour
same,TGase inhibition,TGase,less potent inhibitor of TGase than both cystamine and primary amines
